The test system of this data set is human ABCB11 mRNA. As to the kind of experiment: ASO treatment of primary human hepatocytes (PHH), ABCB11 mRNA by RT-qPCR normalized to B2M. It is filed as cell-based. To be noted: primary human hepatocytes; for ABCB11 FC mRNA (5 μM ASO vs. untreated): 5 μM ASO with PO-modifications, normalized to untreated hepatocytes; for ABCB11 mRNA FC (5 μM ASO vs. UNT): normalized to untreated PHHs (UNT). How it is done:
Primary human hepatocytes (PHH) were thawed using Lonza Human Cryopreserved Hepatocyte Thawing Medium and plated in 96-well collagen-coated plates (5.5-6.0×10^4 cells per well). Four hours later, the media was replaced with sterile-filtered QualGro™ Hepatocyte Culture Medium (BioIVT) containing antibiotic supplement, 0.3 mg/ml Matrigel® matrix (Corning®), and ASO at the desired concentration (e.g., 1.25 μM, 2.5 μM, 5 μM, or 10 μM). After 72 hrs., cells were harvested by aspirating media, washing once with phosphate-buffered saline (PBS), and lysed with 150 μl of Buffer RLT lysis buffer (Qiagen®). Plates were frozen at-80° C. during cell lysis. After thawing, total RNA was isolated using the Qiagen RNEasy kit as instructed by manufacturer. cDNA (random-primed) was synthesized from 10 μl of RNA using the LifeTech High Capacity cDNA Reverse Transcription kit. 2 μl of cDNA was used for reverse transcription-quantitative PCR (RT-qPCR) analyses using standard Taqman” reagents from Applied Biosystems™ to measure ABCB11 and CYP7A1 gene expression. Gene expression data was normalized to the housekeeper gene, beta-2-microglobulin (B2M).
To assess the ability of ASOs targeting ABCB11 regRNAs to modulate the expression of human ABCB11, 195 ASOs targeting the human ABCB11 regRNAs were synthesized. These initial ASOs were screened in PHHs at 5 μM to determine their efficacy in increasing human ABCB11 mRNA using quantitative PCR. This initial screen identified 10 ASOs that induced increased expression of ABCB11 mRNA by more than 1.5-fold (as compared to untreated PHHs).
(Real-time PCR tracks product formation cycle by cycle.)

Strand notation (5' to 3'): a small letter for the sugar, then the base; units joined by * are phosphorothioate-linked, units joined directly phosphodiester-linked; [ ] holds rarer units or linkages, { } end groups; capitals alone tell only the bases. e = 2'-O-(2-methoxyethyl) (MOE); l = locked nucleic acid (LNA); [5mC] = 5-methylcytosine; d = 2'-deoxy (DNA)

For the substance “CO-11212 (antisense eG*eT*lGeGlAeGl[5mC]*eA*lA*eA*l[5mC]*eT*lA*eGlGe[5mC]lAe[5mC]*eT*eG)”, the “ABCB11 FC mRNA (5 μM ASO vs. untreated)” value is 2.44 fold change.
Consider “CO-4054 (antisense e[5mC]*eG*eT*eT*e[5mC]*eA*eT*e[5mC]*eT*eT*eT*eG*e[5mC]*eT*eT*eA*eT*eA*e[5mC]*eA)”, for which the “ABCB11 mRNA FC (5 μM ASO vs. UNT)” value is 1.269 fold change.
As to “CO-4510 (antisense eG*e[5mC]*e[5mC]*eA*e[5mC]*eA*e[5mC]*eG*eT*eT*eT*e[5mC]*eT*eT*eA*eT*eT*eG*e[5mC]*eG)”, the “ABCB11 mRNA FC (5 μM ASO vs. UNT)” value came out at 1.084 fold change.
On to “CO-7100 (eA*eT*e[5mC]*eT*eG*dG*dA*dA*eA*dA*dT*dA*dA*eT*dG*d[5mC]*d[5mC]*eT*eT*eT*e[5mC]*eT; antisense)”, for which the “ABCB11 mRNA FC (5 μM ASO vs. UNT)” value came to 1.406 fold change.
“CO-11230 (antisense eG*eTlG*eG*eAlG*e[5mC]*eAlA*eA*e[5mC]lT*eA*eGlG*e[5mC]*eAl[5mC]*eT*eG)”: the “ABCB11 FC mRNA (5 μM ASO vs. untreated)” value was found to be 1.63 fold change.
With “CO-7188: derivative ASO with additional chemical modifications based on parent ASO CO-4535 (antisense eT*eG*eG*l[5mC]*eG*lT*eT*lA*eT*lT*eA*lA*eT*lT*e[5mC]*lT*eA*l[5mC]*eA*eG)”, the “ABCB11 mRNA FC (5 μM ASO vs. UNT)” value was 1.697 fold change.
In the case of “CO-6992 (antisense eT*eG*eG*lA*eT*eGeT*lA*eG*eA*eT*lG*eA*eA*eT*lG*eG*e[5mC]*eA*eA)”, the “ABCB11 mRNA FC (5 μM ASO vs. UNT)” value worked out at 0.992 fold change.
Take “CO-11211 (antisense eG*eT*lG*eGlAeGl[5mC]*eA*lA*eA*l[5mC]*eT*lA*eGlGe[5mC]lA*e[5mC]*eT*eG)”: the “ABCB11 FC mRNA (5 μM ASO vs. untreated)” value is 2.80 fold change.
As to “CO-7063 (eT*e[5mC]*lT*eG*eG*lA*eA*eA*lA*eT*eA*lA*eT*eG*l[5mC]*e[5mC]*eT*lT*eT*e[5mC]; antisense)”, the “ABCB11 mRNA FC (5 μM ASO vs. UNT)” value was found to be 1.291 fold change.
On to “CO-4515 (antisense eG*e[5mC]*e[5mC]*e[5mC]*eA*eA*eA*eT*eG*eA*eG*eG*eT*eG*eA*eT*eA*e[5mC]*eA*eA)”, for which the “ABCB11 mRNA FC (5 μM ASO vs. UNT)” value is 0.978 fold change.
For the substance “CO-4484 (antisense eG*e[5mC]*eT*eA*eA*eT*e[5mC]*e[5mC]*eA*eA*e[5mC]*e[5mC]*eA*e[5mC]*eT*eT*e[5mC]*eA*eA*e[5mC])”, the “ABCB11 mRNA FC (5 μM ASO vs. UNT)” value amounted to 1.113 fold change.
Turning to “CO-7153 (antisense eA*e[5mC]*e[5mC]*eT*eT*eA*eG*eG*eA*eG*eG*eA*eT*eT*eA*eT*eT*eT*eA*eA*e[5mC]*e[5mC]*eT*e[5mC])”, the “ABCB11 mRNA FC (5 μM ASO vs. UNT)” value was 1.409 fold change.
Take “CO-7105 (eT*eA*eT*e[5mC]*eT*dG*dG*lA*dA*dA*lA*dT*dA*lA*dT*dG*l[5mC]*d[5mC]*dT*eT*eT*e[5mC]*eT*eA; antisense)”: the “ABCB11 mRNA FC (5 μM ASO vs. UNT)” value stood at 1.002 fold change.
On to “CO-7189: derivative ASO with additional chemical modifications based on parent ASO CO-4535 (antisense eT*eG*lG*e[5mC]*lG*eT*lT*eA*lT*eT*lA*eA*lT*eT*l[5mC]*eT*lA*e[5mC]*eA*eG)”, for which the “ABCB11 mRNA FC (5 μM ASO vs. UNT)” value is given as 1.487 fold change.
As for “CO-4058 (antisense eG*eA*eT*eT*e[5mC]*eA*e[5mC]*eA*eA*eG*eA*eA*eG*eG*eG*eA*eG*eA*eG*eG)”, the “ABCB11 mRNA FC (5 μM ASO vs. UNT)” value is 1.134 fold change.
Same read-out and setting: the figure for “CO-4520 (antisense eG*eG*eA*eA*eG*eA*eA*eG*eG*eT*eT*eA*eG*e[5mC]*eA*e[5mC]*eA*eG*eA*e[5mC])” is 0.945 fold change; for “CO-7018 (antisense eA*eA*eG*eT*eG*eA*eG*eG*e[5mC]*eA*eT*e[5mC]*eA*eG*eG*eT*eA*eA*eG*eT*eT*e[5mC]*e[5mC]*eT)” it is 1.249 fold change; for “CO-7098 (eA*eT*e[5mC]eT*eG*eG*dA*dA*dA*dA*dT*dA*dA*dT*dG*d[5mC]*e[5mC]*eT*eT*eT*e[5mC]*eT)” it is 1.04 fold change.
With “CO-6979 (antisense eG*eT*eG*eA*eG*dG*d[5mC]*dA*dT*d[5mC]*dA*dG*dG*dT*dA*eA*eG*eT*eT*e[5mC])”, the “ABCB11 mRNA FC (5 μM ASO vs. UNT)” value was 1.201 fold change.
On to “CO-7186: derivative ASO with additional chemical modifications based on parent ASO CO-4535 (antisense eT*eG*eG*l[5mC]*eG*dT*dT*lA*dT*dT*dA*lA*dT*dT*d[5mC]*lT*eA*e[5mC]*eA*eG)”, for which the “ABCB11 mRNA FC (5 μM ASO vs. UNT)” value is recorded as 1.85 fold change.
In the case of “CO-7099 (eA*eT*e[5mC]*eT*eG*eG*eA*eA*eA*eA*eT*eA*eA*eT*eG*e[5mC]*e[5mC]*eT*eT*eT*e[5mC]*eT; antisense)”, the “ABCB11 mRNA FC (5 μM ASO vs. UNT)” value worked out at 0.882 fold change.
In the case of “CO-7096 (eA*e[5mC]*e[5mC]*e[5mC]*e[5mC]*l[5mC]*e[5mC]*eT*e[5mC]*eA*l[5mC]*e[5mC]*eT*eT*eG*lG*eT*eT*e[5mC]*e[5mC]; antisense)”, the “ABCB11 mRNA FC (5 μM ASO vs. UNT)” value is reported as 1.157 fold change.
For the substance “CO-4493 (antisense eA*eT*eG*eG*eT*eG*eA*eG*eA*eG*eT*eG*eT*eG*eG*eT*eT*e[5mC]*eA*eA)”, the “ABCB11 mRNA FC (5 μM ASO vs. UNT)” value came to 1.178 fold change.
On the same count and under the same terms, under “CO-7065 (eT*e[5mC]*eT*lG*eG*eA*eA*lA*eA*eT*eA*lA*eT*eG*e[5mC]*l[5mC]*eT*eT*eT*e[5mC]; antisense)” stands 1.262 fold change; under “CO-7210 (eT*eT*eT*eG*eG*d[5mC]*dG*lT*dT*dA*lT*dT*dA*lA*dT*dT*l[5mC]*dT*dA*e[5mC]*eA*eG*eA*eG; antisense)”, 1.362 fold change; under “CO-7028 (antisense eA*e[5mC]*e[5mC]*eG*eA*e[5mC]*eA*eG*eT*eG*eA*eG*e[5mC]*eT*eT*eA*eT*e[5mC]*eT*eG)”, 1.49 fold change.
With “CO-11244 (antisense eG*eT*eGeG*lAeG*e[5mC]eA*eAlA*e[5mC]eT*eAeG*lGe[5mC]*eAe[5mC]*eT*eG)”, the “ABCB11 FC mRNA (5 μM ASO vs. untreated)” value is 1.29 fold change.
For the substance “CO-4016 (antisense eT*eT*eT*eT*eA*eA*e[5mC]*eT*eT*eG*eG*e[5mC]*eT*eT*eT*eG*eT*eG*eA*eA)”, the “ABCB11 mRNA FC (5 μM ASO vs. UNT)” value is 1.294 fold change.
In the case of “CO-11234 (antisense eG*eT*eG*eG*lAeGe[5mC]*eA*eA*lA*e[5mC]*eT*eA*eGlGe[5mC]*eA*e[5mC]*eT*eG)”, the “ABCB11 FC mRNA (5 μM ASO vs. untreated)” value amounted to 1.55 fold change.
Consider “CO-6981 (antisense eA*e[5mC]*eA*eG*eA*eA*eG*eT*eG*eA*eG*eG*e[5mC]*eA*eT*e[5mC]*eA*eG*eG*eT)”, for which the “ABCB11 mRNA FC (5 μM ASO vs. UNT)” value is given as 1.164 fold change.
Take “CO-4525 (antisense eA*e[5mC]*e[5mC]*e[5mC]*eA*e[5mC]*eA*eT*eA*eG*eT*eT*eG*eT*eA*e[5mC]*eT*e[5mC]*eT*e[5mC])”: the “ABCB11 mRNA FC (5 μM ASO vs. UNT)” value was determined as 0.995 fold change.
In the case of “CO-7200 (eA*eG*eG*eT*eG*eG*eA*eG*e[5mC]*eA*eA*eA*e[5mC]*eT*eA*eG*eG*e[5mC]*eA*e[5mC]*eT*eG*eA*eG; antisense)”, the “ABCB11 mRNA FC (5 μM ASO vs. UNT)” value stood at 1.277 fold change.
On to “CO-7004 (antisense eG*eT*eG*eA*lG*eG*e[5mC]*eA*eT*l[5mC]*eA*eG*eG*eT*lA*eA*eG*eT*eT*e[5mC])”, for which the “ABCB11 mRNA FC (5 μM ASO vs. UNT)” value came to 1.285 fold change.

The values above are taken from patent publication US20250320496A1, “MODULATION OF ABCB11 GENE TRANSCRIPTION USING ANTISENSE OLIGONUCLEOTIDES TARGETING REGULATORY RNAS” (CAMP4 Therapeutics Corporation, priority 2022, published 2025).
